Data from patent publication US8044100B2, “Methods and compositions for treating amyloid-related diseases” (Bellus Health Inc., priority 2004, dated 2011).

How the values were obtained:
[1] = system: Aβ peptides (Aβ40, Aβ42) in the plasma and brain of TgCRND8 mice; assay: Short term treatment (14 or 28 days) in TgCRND8 mice: Aβ levels in plasma and brain by ELISA; assay type: in vivo, mouse; settings: for Aβ40 Change Insoluble / Aβ42 Change Insoluble / Aβ42 Change Soluble / Aβ40 Change Soluble: brain homogenate; for Aβ42 Change / Aβ40 Change: plasma;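 for Aβ40 Change Insoluble: symbols grade percent change in Aβ versus untreated control with plus for increase and minus for decrease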;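 for Aβ40 Change Soluble: symbols grade percent change in Aβ versus untreated control with plus for increase and minus for decrease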;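 for Aβ42 Change Insoluble: symbols grade percent change in Aβ versus untreated control with plus for increase and minus for decrease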
Procedure: The short term therapeutic effect of 19 compounds of the invention was studied. These compounds were administered over a 14 or 28 day period at the end of which the levels of Aβ peptides in the plasma and brain of TgCRND8 animals were determined.
Male and female transgenic mice from the 3rd and 4th B6C3F1 generations were used in this example and given daily subcutaneous or oral administrations of one of a series of compounds for 14 or 28 days. The following abbreviations are used to designate these animals from the 3rd and 4th generation backcross in the present protocol: TgCRND8-2.B6C3F1(N3); TgCRND8-2.B6C3F1 (N4).
Baseline animals (Group 1) consisted of naive TgCRND8-2. B6C3F1(N3) at 11±1 weeks of age. These mice were used to determine the Aβ levels in the plasma and brain of naive transgenic animals at the initiation of treatment.
Starting at 11 weeks of age (±1 week) animals received daily administration of their respective treatment for a period of 14 or 28 days (groups 2-21), at a dose of 250 mg/kg at 10 ml/kg or of vehicle only (water; group 2) or 1% methyl cellulose only (group 21). The route of administration was subcutaneous for water-soluble compounds and oral for compounds solubilized in methylcellulose 1%. (MC 1%). At the end of the treatment periods, plasma and perfused brains were collected for quantification of Aβ levels.
At 11±1 weeks of age for the Baseline group, and at the end of the treatment period (14 or 28 days) for Groups 2 to 21, at 24 hours after the last compound administration animals were sacrificed and samples collected. An approximate blood volume of 500 μl was collected from the orbital sinus and kept on ice until centrifugation at 4° C. at a minimum speed of 3,000 rpm for 10 minutes. Plasma samples were immediately frozen and stored at −80° C. pending analysis. The brains were removed, frozen, and stored at −80° C. awaiting analysis.
Brains were weighted frozen and homogenized with 4 volumes of ice cold 50 mM Tris-Cl pH 8.0 buffer with protease inhibitor cocktail (4 mL of buffer for 1 g of wet brain). Samples were spun at 15000 g for 20 minutes and the supernatants were transferred to fresh tubes. One hundred fifty (150) μl from each supernatant were mixed with 250 μl of 8M guanidine-HCL/50 mM Tris-HCL pH 8.0 (ratio of 0.6 vol supernatant:1 vol 8M guanidium/Tris-HCL 50 mM pH8.0) and 400 μL 5 M guanidium/Tris-HCL 50 mM pH8.0 were added. The tubes were vortexed for 30 seconds and frozen at −80° C. In parallel, pellets were treated with 7 volumes of 5 M guanidine-HCL/50 mM Tris-HCL pH 8.0 (7 mL of guanidine for 1 g of wet brain), vortexed for 30 seconds and frozen at −80° C. Samples were thawed at room temperature, sonicated at 80° C. for 15 minutes and frozen again. This cycle was repeated 3 times to ensure homogeneity and samples were returned to −80° C. pending analysis.
Aβ levels were evaluated in plasma and brain samples by ELISA using Human Aβ40 and Aβ42 Fluorometric ELISA kits from Biosource (Cat. No. 89-344 and 89-348) according to manufacturer's recommended procedures. In short, samples were thawed at room temperature, sonicated for 5 minutes at 80° C. (sonication for brain homogenates; no sonication for plasma samples) and kept on ice. Aβ peptides were captured using 100 μl of the diluted samples to the plate and incubated without shaking at 4° C. overnight. The samples were aspirated and the wells were rinsed 4 times with wash buffer obtained from the Biosource ELISA kit. The anti-Aβ40 or anti-Aβ42 rabbit polyclonal antiserum (specific for the Aβ40 or Aβ42 peptide) was added (100 μl) and the plate was incubated at room temperature for 2 hours with shaking. The wells were aspirated and washed 4 times before adding 100 μl of the alkaline phosphatase labeled anti-rabbit antibody and incubating at room temperature for 2 hours with shaking. The plates were then rinsed 5 times and the fluorescent substrate (100 μl) was added to the plate. […]

[2] = system: amyloid plaques in the brains of TgCRND8 mice; assay: ThioS histology of brain sections of TgCRND8 mice: number of plaques and area occupied; assay type: in vivo, mouse; settings: for Change in Plaque Area / Change in Plaque Number: 16 wks, ThioS
Procedure: For the ThioS studies, the plaques in the brains of the mice were quantified as follows. Mice were transcardially perfused with saline solution. Brains were dissected out and separated in 2 hemispheres. The left hemisphere was immersed in freshly-prepared 4% paraformaldehyde for 3 hrs at 4° C., then transfered into 30% sucrose at 4° C. When cryoprotection was achieved (24-48 hours), brains were frozen in isopentane at −45° C. and subsequently stored at −80° C. until sectioning. Coronal 40 μm-thick sections were performed, and stained with thioflavin S (1% solution in water) for 8 min. After differentiation of the thioflavin S staining, sections were counterstained with hematoxylin for 5 minutes. Two sets of pictures were captured simultaneously. A first set of pictures was captured under brightfield illumination to obtain morphological details of the section; a second set of pictures was captured under a green, specific, fluorescent filter (fluorescein filter, Ex 495 nm, Em 525 nm). Image analysis to quantify the number of plaques and the area occupied by these plaques was performed using Image Pro Plus software (Media Cybernetics, MD, USA).
Increases in the areas and numbers of plaques are indicated using “+” symbols, while decreases in the areas and numbers of the plaques are indicated using “−” symbols.
Specifically, increases in the areas and numbers of plaques (relative to vehicle treated control) of 10 to 19.99% are scored as “+”. Decreases in the areas and numbers of plaques of 10 to 19.99% are scored as “−”. Additionally, changes of 9.99% or less in either direction are scored as “0”.

[3] = Day 14, methylcellulose group, daily oral
[4] = Day 28, methylcellulose group, daily oral
[5] = Day 14, vehicle group, 250 mg/kg daily
[6] = Day 28, vehicle group, 250 mg/kg daily
[7] = Day 14, vehicle (water) group, 250 mg/kg daily subcutaneous
[8] = 30 mg/kg, ThioS staining of brain sections, preliminary

## O=S(=O)(O)CCCNC12CC3CC(CC(C3)C1)C2 [BW]
[1]; [3]
  Aβ40 Change Insoluble: −−− (decreases of 39% or more)
  Aβ42 Change Insoluble: −−− (decreases of 39% or more)
  Aβ42 Change Soluble: −− (decreases of 20 to 38%)
[1]; [4]
  Aβ40 Change Insoluble: − (Decreases in the levels of Aβ of 5 to 19%)
  Aβ40 Change Soluble: − (Decreases in the levels of Aβ of 5 to 19%)
  Aβ42 Change Insoluble: −− (decreases of 20 to 38%)
  Aβ42 Change Soluble: − (Decreases in the levels of Aβ of 5 to 19%)
  Aβ42 Change: + (increases in the levels of Aβ (relative to untreated control) of 20 to 39%)
[2]; 30 mg/kg
  Change in Plaque Area: 0 (changes of 9.99% or less in either direction)
  Change in Plaque Number: 0 (changes of 9.99% or less in either direction)
[2]; 100 mg/kg
  Change in Plaque Area: 0 (changes of 9.99% or less in either direction)
  Change in Plaque Number: − (Decreases in the areas and numbers of plaques of 10 to 19.99%)

## CC(C)(C)NCCCS(=O)(=O)O [BX, 3-(t-butyl)amino-1-propanesulfonic acid]
[1]; after 14 and 28 days of treatment
  levels of Aβ peptides in the plasma: significant increase
[1]; [5]
  Aβ40 Change Insoluble: −−− (decreases of 39% or more)
  Aβ40 Change Soluble: − (Decreases in the levels of Aβ of 5 to 19%)
  Aβ42 Change Insoluble: −−− (decreases of 39% or more)
  Aβ42 Change Soluble: −− (decreases of 20 to 38%)
[1]; [6]
  Aβ40 Change Insoluble: −−− (decreases of 39% or more)
  Aβ40 Change Soluble: −−− (decreases of 39% or more)
  Aβ42 Change Insoluble: − (Decreases in the levels of Aβ of 5 to 19%)
  Aβ42 Change Soluble: −− (decreases of 20 to 38%)
[1]; [7]
  Aβ40 Change: +++ (increases of 70% or higher)
  Aβ42 Change: ++ (increases of 40 to 69%)
[1]; Day 28, vehicle (water) group, 250 mg/kg daily subcutaneous
  Aβ40 Change: +++ (increases of 70% or higher)
[2]; 30 mg/kg
  Change in Plaque Area: − (Decreases in the areas and numbers of plaques of 10 to 19.99%)
  Change in Plaque Number: − (Decreases in the areas and numbers of plaques of 10 to 19.99%)
[2]; [8]
  area occupied by the plaques: decreased
  number of plaques: decreased
[2]; 100 mg/kg
  Change in Plaque Area: + (increases in the areas and numbers of plaques (relative to vehicle treated control) of 10 to 19.99%)
  Change in Plaque Number: 0 (changes of 9.99% or less in either direction)
